From US20260297042A1, “BIARYLAMIDE DERIVATIVES AND THEIR USE AS PKMYT1 INHIBITORS” (CANCER RESEARCH TECHNOLOGY LIMITED, priority 2023, published 2026)

How the values were obtained:
WEE1 = target: T1, WEE1 (Homo sapiens, UniProt P30291); assay: Selectivity versus WEE1 assay (ADP-Glo enzymatic assay); type: biochemical; details: banded; for IC50: ADP-Glo, 15 nM WEE1, 60 minutes at 26° C.; for PKMYT1 vs. WEE1 selectivity: fold difference in selectivity for PKMYT1 over WEE1, ">N" = at least in this band but could be higher
T1 construct: purchased Thermo Fisher PR7373A
How it was run: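 Inhibition is measured as reduced ADP production, detected by luminescence with ADP-Glo, after enzyme (15 nM) and 30 µM ATP react for 60 min at 26° C in 1% DMSO-containing HEPES buffer, pH 7.5. Data are accepted only if replicate IC50s fall within 3-fold and r2 exceeds 0.9.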

Human PKMYT1 = target: T2, Human PKMYT1 (Homo sapiens, UniProt Q99640); assay: PKMYT1 biochemical ADP-Glo enzymatic assay; details: ADP-Glo; 15 nM PKMYT1 kinase domain, 500 µM ATP, 60 minutes at 26° C.; banded
T2 construct: Human PKMYT1 75-362 was cloned as a TEV cleavable 6xHis fusion; 6xHis (TEV cleavable) (cleaved yes); made in house; host or cells: bacterial cells
T2 sequence (Q99640 75-362): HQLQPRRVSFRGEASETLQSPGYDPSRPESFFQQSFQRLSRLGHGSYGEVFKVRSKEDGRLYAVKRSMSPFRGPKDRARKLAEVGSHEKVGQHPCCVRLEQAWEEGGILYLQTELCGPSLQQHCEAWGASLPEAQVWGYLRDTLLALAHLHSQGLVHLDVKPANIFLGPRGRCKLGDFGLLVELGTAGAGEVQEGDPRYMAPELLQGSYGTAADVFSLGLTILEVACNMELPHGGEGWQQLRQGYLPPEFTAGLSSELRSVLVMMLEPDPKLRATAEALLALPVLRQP
How it was run: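 IC50 derived from luminescence (ADP-Glo Max) after PKMYT1 kinase domain, 15 nM, turned over 500 µM ATP for 60 min at 26 °C. Buffer contained 10 mM MgCl2, 1 mM EGTA and 0.01% Brij-35 at pH 7.5.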

T1 sequence (P30291 whole entry): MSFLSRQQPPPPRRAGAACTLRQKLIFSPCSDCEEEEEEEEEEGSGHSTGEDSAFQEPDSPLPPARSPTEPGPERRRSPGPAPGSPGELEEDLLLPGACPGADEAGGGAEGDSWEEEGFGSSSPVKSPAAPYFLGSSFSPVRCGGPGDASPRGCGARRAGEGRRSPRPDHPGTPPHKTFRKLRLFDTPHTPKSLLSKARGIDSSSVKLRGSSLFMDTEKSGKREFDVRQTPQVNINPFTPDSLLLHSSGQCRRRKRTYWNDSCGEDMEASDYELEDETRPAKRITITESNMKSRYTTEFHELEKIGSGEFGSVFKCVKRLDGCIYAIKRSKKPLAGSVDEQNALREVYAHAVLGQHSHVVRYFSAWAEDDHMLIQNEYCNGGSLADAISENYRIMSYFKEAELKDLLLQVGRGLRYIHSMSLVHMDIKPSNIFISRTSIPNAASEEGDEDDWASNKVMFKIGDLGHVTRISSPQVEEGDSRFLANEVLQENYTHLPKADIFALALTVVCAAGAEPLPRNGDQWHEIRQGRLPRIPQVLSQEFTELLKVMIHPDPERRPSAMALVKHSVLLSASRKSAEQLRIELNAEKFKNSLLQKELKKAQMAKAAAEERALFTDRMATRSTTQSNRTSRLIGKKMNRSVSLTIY

IC50 (WEE1) | PKMYT1 vs. WEE1 selectivity (WEE1) | IC50 (Human PKMYT1) | Structure (SMILES)
> 11 µM | Y (1000-5000 fold) | < 0.05 µM | Cc1ccc(O)c(C)c1NC(=O)c1cnc(Nc2ncc3cc(F)ccc3n2)s1 [BAA-296, 2-((6-fluoroquinazolin-2-yl)amino)-N-(3-hydroxy-2,6-dimethylphenyl)thiazole-5-carboxamide]
> 11 µM | Y (1000-5000 fold) | 0.05 to 1 µM | Cc1ccc(C(=O)Nc2ccc(Nc3ncc(C(=O)Nc4c(C)ccc(O)c4C)s3)nc2)c(C)c1 [BAA-297, 2-((5-(2,4-dimethylbenzamido)pyridin-2-yl)amino)-N-(3-hydroxy-2,6-dimethylphenyl)thiazole-5-carboxamide]
> 11 µM | Y (1000-5000 fold) | 0.05 to 1 µM | Cc1ccc(O)c(C)c1NC(=O)c1cnc(Nc2ccc3cc(Br)cnc3n2)s1 [BAA-298, 2-((6-bromo-1,8-naphthyridin-2-yl)amino)-N-(3-hydroxy-2,6-dimethylphenyl)thiazole-5-carboxamide]
1 to 11 µM | X (100-<1000 fold) | < 0.05 µM | Cc1ccc(O)c(C)c1NC(=O)c1cnc(Nc2ccc(NC(=O)CC(C)C)cn2)s1 [BAA-299, N-(3-hydroxy-2,6-dimethylphenyl)-2-((5-(3-methylbutanamido)pyridin-2-yl)amino)thiazole-5-carboxamide]
> 11 µM | X (100-<1000 fold) | 0.05 to 1 µM | Cc1ccc(O)c(C)c1NC(=O)c1cnc(Nc2ccc3cc(Br)ccc3n2)s1 [BAA-300, 2-((6-bromoquinolin-2-yl)amino)-N-(3-hydroxy-2,6-dimethylphenyl)thiazole-5-carboxamide]
> 11 µM | X (100-<1000 fold) | 0.05 to 1 µM | Cc1ccc(O)c(C)c1NC(=O)c1cnc(Nc2nc(C)c(-c3cc(F)cc(F)c3)c(C)n2)s1 [BAA-301, 2-((5-(3,5-difluorophenyl)-4,6-dimethylpyrimidin-2-yl)amino)-N-(3-hydroxy-2,6-dimethylphenyl)thiazole-5-carboxamide]
> 11 µM | X (100-<1000 fold) | 0.05 to 1 µM | Cc1ccc(O)c(C)c1NC(=O)c1cnc(Nc2ccc(NC(=O)c3c(F)cc(F)cc3F)cn2)s1 [BAA-302, N-(3-hydroxy-2,6-dimethylphenyl)-2-((5-(2,4,6-trifluorobenzamido)pyridin-2-yl)amino)thiazole-5-carboxamide]
> 11 µM | X (100-<1000 fold) | 0.05 to 1 µM | Cc1ccc(O)c(C)c1NC(=O)c1cnc(Nc2ccnc(-c3ccc(F)cc3)c2)s1 [BAA-304, 2-((2-(4-fluorophenyl)pyridin-4-yl)amino)-N-(3-hydroxy-2,6-dimethylphenyl)thiazole-5-carboxamide]
> 11 µM | W (10-<100 fold) | 1 to 11 µM | Cc1ccc(O)c(C)c1NC(=O)c1cnc(Nc2cncc(-c3ccc(F)cc3)c2)s1 [BAA-305, 2-((5-(4-fluorophenyl)pyridin-3-yl)amino)-N-(3-hydroxy-2,6-dimethylphenyl)thiazole-5-carboxamide]
> 11 µM | X (100-<1000 fold) | 0.05 to 1 µM | Cc1ccc(O)c(C)c1NC(=O)c1cnc(Nc2ccc(Nc3ccc(F)cc3)cn2)s1 [BAA-310, 2-((5-((4-fluorophenyl)amino)pyridin-2-yl)amino)-N-(3-hydroxy-2,6-dimethylphenyl)thiazole-5-carboxamide]
> 11 µM | Y (1000-5000 fold) | 0.05 to 1 µM | Cc1ccc(O)c(C)c1NC(=O)c1cnc(Nc2cc(C(F)(F)F)nc(OCC(F)(F)F)n2)s1 [BAA-318, N-(3-hydroxy-2,6-dimethylphenyl)-2-((2-(2,2,2-trifluoroethoxy)-6-(trifluoromethyl)pyrimidin-4-yl)amino)thiazole-5-carboxamide]
